Results as given in PubChem BioAssay AID1996.
In brackets after ≈: the same amount, converted by molar mass.

Settings: buffer; pH 7.4; 200.0 µM

SMILES | solubility kinetic [µg/mL]
Cc1ccc(CCC(=O)Nc2ccccc2C(=O)O)o1 | > 41
CCN(Cc1nc(-c2ccc(OC)cc2)no1)C(=O)c1ccoc1C | 41.1 (≈ 120 µM)
COc1cccc(OCC(=O)NCC2CCCO2)c1 (centres undefined) | > 39.8
COc1cc(NS(=O)(=O)c2cn(C)cn2)cc(OC)c1 | 8.9 (≈ 29.9 µM)
Cc1ccc(N2C(S)=C(C#N)C(=O)NC2c2ccco2)cc1 (centres undefined) | > 46.7
CC(=O)NCC(=O)NNC1CC(=O)N(c2cccc(Cl)c2)C1=O (centres undefined) | > 50.8
C#CCN1C(=O)S/C(=C\c2cc3c(cc2OC)OCO3)C1=O | 1.1 (≈ 3.47 µM)
COc1ccc(C(=O)OCC(=O)Nc2c(C)cccc2C)cc1 | < 0.7
CC(=O)Nc1ccc(NC(=O)COc2ccc(Cl)cc2Cl)cc1 | 1 (≈ 2.83 µM)
CSc1nc2ccccc2c(=O)n1-c1cccnc1 | 34.8 (≈ 129 µM)
Cc1c(C(=O)NC2CCCCC2C)oc2ccccc12 (centres undefined) | 1.7 (≈ 6.26 µM)
COc1cc(OC)c(C(=O)O/N=C(\N)c2ccc(C)cc2)cc1OC | > 51.7
COc1ccccc1-c1nc2ccc(Cl)cc2c(=O)n1O | > 45.4
NS(=O)(=O)c1cccc(NC(=O)Nc2ccc(Cl)cc2)c1 | 10.7 (≈ 32.8 µM)
O=C(/C=C/c1cccs1)NCc1cccs1 | 32.3 (≈ 130 µM)
COc1ccc(C(=O)CC(=O)C(=O)Nc2c(C)cccc2C)cc1 | 15.6 (≈ 47.9 µM)
O=C(O)c1cccc(Nc2c([N+](=O)[O-])c(=O)oc3ccccc23)c1 | > 48.9
O=C(CN1C(=O)NC2(CCCC2)C1=O)OCc1ccccc1 | 21.8 (≈ 72.1 µM)
COc1ccc(C(=O)Nc2ccc3ccccc3n2)cc1OC | 0.7 (≈ 2.27 µM)
OC(CNCc1ccc(Cl)cc1)C(F)(F)F (centres undefined) | > 38

SMILES | solubility kinetic [µg/mL]
O=C1Nc2ccccc2C1c1ncc(C(F)(F)F)cc1Cl (centres undefined) | > 46.9
CN(C)/C=C/C(=O)c1ccn(S(=O)(=O)c2ccccc2)c1 | > 45.7
N#Cc1c(C(F)(F)F)cc(-c2ccc(F)cc2)nc1SCC(=O)O | 51.2 (≈ 144 µM)
Cc1cc(SCc2ccc(Cl)c(Cl)c2)nc(=O)[nH]1 | 1.4 (≈ 4.65 µM)
CCOC(=O)C1=C(C)NC(=O)NC1c1c(OC)ccc2ccccc12 (centres undefined) | 0.7 (≈ 2.06 µM)
O=C(NC1CC1)C(=O)c1c[nH]c2ccccc12 | > 34.2
O=C(COc1ccccc1Cl)NCCNC(=O)c1ccncc1 | > 50.1
CSc1ccc(CNCCN2CCOCC2)cc1.Cl | > 50.9
Cc1ccc(S(=O)(=O)N(C)CC(=O)NCCCn2ccnc2)cc1 | 48.6 (≈ 139 µM)
CCOc1ccccc1/C=C/c1nc2ccccc2[nH]c1=O | 1.6 (≈ 5.47 µM)
O=C(O)C1C2CCC(C2)C1C(=O)NCCc1cccc(Cl)c1 (centres undefined) | > 48.3
CCN(/C(N)=N/c1nc(C)cc(C)n1)c1ccccc1 | > 40.4
O=[N+]([O-])c1cccc2ccc(N3CCOCC3)nc12 | 38.4 (≈ 148 µM)
CC(NC(=O)c1cccs1)c1ccccc1 (centres undefined) | > 34.7
CC(=O)Nc1ccc(S(=O)(=O)N2c3ccc(F)cc3CCC2C)cc1 (centres undefined) | 45.9 (≈ 127 µM)
CCn1nc(C(C)C(=O)O)c2ccccc2c1=O (centres undefined) | > 36.9
c1ccc(CCNC2=NCCS2)cc1 | > 30.9
Cc1ccc(NC(=O)CSc2nc3ccccc3c(=O)[nH]2)cc1[N+](=O)[O-] | 3.6 (≈ 9.72 µM)
Cc1cc(C(=O)OCC(=O)N(C)c2ccccc2)c(C)o1 | > 43.1
CCC(=NCc1cccnc1)c1c(O)n(-c2ccccc2)c(=O)[nH]c1=O | 43.5 (≈ 124 µM)

SMILES | solubility kinetic [µg/mL]
CN(C)/C=C/C(=O)c1ccc(Cl)s1 | > 32.4
CC(C)CN(C(=O)CN(C)CC(=O)Nc1ccccc1C#N)c1c(N)n(CC(C)C)c(=O)[nH]c1=O | > 72.5
CN(Cc1cccc(F)c1)C(=O)c1ccc2c(=O)n3c(nc2c1)CCC3 | 49.8 (≈ 142 µM)
S=C(NCc1ccccc1)NCc1ccco1 | 28.2 (≈ 114 µM)
COC(=O)c1sccc1NC(=S)OC | 6.1 (≈ 26.4 µM)
c1ccc(CSc2nc3ncccn3n2)cc1 | > 36.3
CC(C)(C)C(=O)N1CCN(c2ncccc2C(F)(F)F)CC1 | > 47.3
CCOc1ccc(C(=O)NCCN2CCOCC2)cc1 | > 41.8
COc1cccc(-c2nc(CCl)cs2)c1OC.Cl | 32.4
Cc1nonc1-c1csc(N)n1 | > 27.3
O=C(COC(=O)c1cccc([N+](=O)[O-])c1)NC1CCCC1 | 32.3 (≈ 111 µM)
CC(C)CNS(=O)(=O)c1ccc(CCC(=O)NC2CCCCC2)cc1 | 10.5 (≈ 28.6 µM)
Cc1ccc(NS(=O)(=O)c2ccc3c(c2)n(C)c(=O)n3C)cc1 | 6.3 (≈ 19 µM)
O=C(/C=C/c1ccc([N+](=O)[O-])cc1)OCC(=O)N1CCCCCC1 | 18.9 (≈ 56.9 µM)
CCCCN(C(=O)COC(=O)c1ccc(C)s1)c1c(N)n(CCC)c(=O)[nH]c1=O | 17.9 (≈ 42.4 µM)
CCCCCOc1ccc(C(=O)OC(C)C(=O)NCc2ccco2)cc1 (centres undefined) | 2.9 (≈ 8.07 µM)
C/C(=C\c1ccc(Br)cc1)C(=O)c1c(C)cc(C)[nH]c1=O | > 51.9
COCCNc1nc(-c2ccccc2)nc2c1oc1ccccc12.Cl | 4.6
CCOc1ccc(C(=O)NCc2ccco2)cc1Cl | 34.5 (≈ 123 µM)
